Test results from patent publication US20050054770A1, “Helicomimetics and stabilized lxxll peptidomimetics” (priority 2001, published 2005).
Read-outs that look alike come from different tables or passages of the source. Positions of bridges follow the written chain, without caps; N, C: chain ends. Non-standard residues stand in square brackets, D forms with d. Residues, ends and D or L forms follow the SMILES beside them. dPen = CC(C)(S)[C@@H](N)C(=O)O; Pen = CC(C)(S)[C@H](N)C(=O)O; d(hCys) = N[C@H](CCS)C(=O)O; hCys = N[C@@H](CCS)C(=O)O

Key:
[1] = target: ER beta (Homo sapiens, UniProt Q92731); assay: competition binding assay against a model linear peptide sequence (estrogen receptor-coactivator interaction), ER beta
Description: (§1) The synthetic helicormimetic peptides designed as antagonists of the estrogen receptor-coactivator interactions were tested in a competition binding assay (Lilly Research Labs) against a model linear peptide sequence. Activities are reported in the Table below in Ki values, with two of the best analogs labeled as PERM-1 and PERM-2, or Peptidomimetic Estrogen Receptor Modulators.

[2] = target: T1, ER alpha (Homo sapiens, UniProt P03372); assay: competition binding assay against a model linear peptide sequence (estrogen receptor-coactivator interaction), ER alpha
T1 sequence (P03372 1-595): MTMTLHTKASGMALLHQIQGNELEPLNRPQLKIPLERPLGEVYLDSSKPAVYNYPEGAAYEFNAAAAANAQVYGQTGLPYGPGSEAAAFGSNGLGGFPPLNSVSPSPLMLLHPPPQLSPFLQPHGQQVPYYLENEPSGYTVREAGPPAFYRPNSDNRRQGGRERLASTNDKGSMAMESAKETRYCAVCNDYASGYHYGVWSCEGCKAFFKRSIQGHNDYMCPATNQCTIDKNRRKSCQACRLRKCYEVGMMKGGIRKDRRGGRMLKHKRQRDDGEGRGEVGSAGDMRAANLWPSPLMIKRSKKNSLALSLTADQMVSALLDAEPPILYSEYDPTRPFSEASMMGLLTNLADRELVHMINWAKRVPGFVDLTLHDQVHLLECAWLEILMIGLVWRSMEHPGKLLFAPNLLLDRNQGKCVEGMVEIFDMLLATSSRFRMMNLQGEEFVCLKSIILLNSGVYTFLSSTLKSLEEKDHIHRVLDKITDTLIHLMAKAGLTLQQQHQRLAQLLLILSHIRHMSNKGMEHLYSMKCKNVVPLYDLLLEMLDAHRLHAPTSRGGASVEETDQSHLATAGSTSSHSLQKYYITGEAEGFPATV
Description: as §1

[3] = competition binding assay (Lilly Research Labs), read-out: Ki ER β
[4] = competition binding assay (Lilly Research Labs), read-out: Ki ER α

Chain of ER beta (Q92731 whole entry): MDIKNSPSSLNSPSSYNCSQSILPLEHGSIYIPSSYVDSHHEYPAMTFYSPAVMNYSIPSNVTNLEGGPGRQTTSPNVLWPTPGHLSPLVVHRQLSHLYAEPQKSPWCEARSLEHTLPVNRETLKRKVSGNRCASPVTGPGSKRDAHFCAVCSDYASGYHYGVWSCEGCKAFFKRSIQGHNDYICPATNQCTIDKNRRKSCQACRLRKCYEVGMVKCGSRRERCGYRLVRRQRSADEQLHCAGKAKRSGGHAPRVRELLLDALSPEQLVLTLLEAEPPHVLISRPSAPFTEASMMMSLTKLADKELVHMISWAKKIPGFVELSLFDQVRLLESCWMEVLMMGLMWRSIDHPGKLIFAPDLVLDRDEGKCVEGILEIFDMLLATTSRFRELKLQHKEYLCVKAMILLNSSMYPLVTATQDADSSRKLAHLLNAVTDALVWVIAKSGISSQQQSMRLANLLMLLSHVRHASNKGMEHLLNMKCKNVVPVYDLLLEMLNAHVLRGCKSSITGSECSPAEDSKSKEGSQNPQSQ

SMILES | Ki [1, 3] | Ki [2, 4] | Ki ([1]; read-out: Ki value against ER beta) | selectivity ER alpha versus ER beta ([2]; from Ki values against ER alpha and ER beta) | Ki ([2]; read-out: Ki value against ER alpha)
CC[C@H](C)[C@@H]1NC(=O)[C@H](NC(=O)[C@H](N)CCCCN)CSSC[C@@H](C(=O)N[C@@H](CCCNC(=N)N)C(=O)N[C@@H](CC(C)C)C(=O)N[C@@H](CC(C)C)C(=O)N[C@@H](CCC(N)=O)C(N)=O)NC(=O)[C@H](CC(C)C)NC1=O [AKG-I-28, H-D-Lys-cyclo (D-Cys-Ile-Leu-Cys)-Arg-Leu-Leu-Gln-NH2] (H-[dK][dC]ILCRLLQ-NH2; disulfide 2-5) | 1900 nM | 220 nM | – | – | –
CC[C@H](C)[C@@H]1NC(=O)[C@@H](NC(=O)[C@@H](N)CCCCN)CSC[C@@H](C(=O)N[C@@H](CCCNC(=N)N)C(=O)N[C@@H](CC(C)C)C(=O)N[C@@H](CC(C)C)C(=O)N[C@@H](CCC(N)=O)C(N)=O)NC(=O)[C@H](CC(C)C)NC1=O [AKG-I-39, H-Lys-cyclo (Ala-Ile-Leu-Ala)- Arg-Leu-Leu-Gln-NH2, Lanthionine] | 15400 nM | 1180 nM | – | – | –
CC[C@H](C)[C@@H]1NC(=O)[C@H](NC(=O)[C@H](CC(C)C)NC(=O)[C@H](CC(C)C)NC(=O)[C@@H](N)CCCCN)CSSC[C@@H](C(=O)N[C@@H](CCCNC(=N)N)C(=O)N[C@@H](CC(C)C)C(=O)N[C@@H](CC(C)C)C(=O)N[C@@H](CCC(N)=O)C(N)=O)NC(=O)[C@H](CC(C)C)NC1=O [AKG-I-46, H-Lys-Leu-Leu-cyclo(D-Cys-Ile-Leu-Cys)-Arg-Leu-Leu-Gln-NH2] (H-KLL[dC]ILCRLLQ-NH2; disulfide 4-7) | 2000 nM | 398 nM | – | – | –
CC[C@H](C)[C@@H]1NC(=O)[C@H](NC(=O)[C@@H](N)CCCNC(=N)N)CSSC[C@@H](C(=O)N[C@@H](CCCNC(=N)N)C(=O)N[C@@H](CC(C)C)C(=O)N[C@@H](CC(C)C)C(=O)N[C@@H](CCC(N)=O)C(N)=O)NC(=O)[C@H](CC(C)C)NC1=O [AKG-I-50, H-Arg-cyclo(D-Cys-Ile-Leu-Cys)-Arg-Leu-Leu-Gln-NH2] (H-R[dC]ILCRLLQ-NH2; disulfide 2-5) | 77 nM | 11 nM | – | – | –
CC[C@H](C)[C@@H]1NC(=O)[C@H](CC(C)C)NC(=O)[C@@H](NC(=O)[C@@H](N)CCCCN)CSSC[C@H](C(=O)N[C@@H](CCCNC(=N)N)C(=O)N[C@@H](CC(C)C)C(=O)N[C@@H](CC(C)C)C(=O)N[C@@H](CCC(N)=O)C(N)=O)NC1=O [AKG-I-59, H-Lys-cyclo(Cys-Leu-Ile-D-Cys)-Arg-Leu-Leu-Gln-NH2] (H-KCLI[dC]RLLQ-NH2; disulfide 2-5) | 17000 nM | 2100 nM | – | – | –
CC[C@H](C)[C@@H]1NC(=O)[C@@H](NC(=O)[C@@H](N)CCCCN)CSSC[C@H](C(=O)N[C@@H](CCCNC(=N)N)C(=O)N[C@@H](CC(C)C)C(=O)N[C@@H](CC(C)C)C(=O)N[C@@H](CCC(N)=O)C(N)=O)NC(=O)[C@H](CC(C)C)NC1=O [AKG-I-60, H-Lys-cyclo(Cys-Ile-Leu-D-Cys)-Arg-Leu-Leu-Gln-NH2] (H-KCIL[dC]RLLQ-NH2; disulfide 2-5) | 7200 nM | 2400 nM | – | – | –
CC[C@H](C)[C@@H]1NC(=O)[C@H](NC(=O)[C@@H](N)CCCCN)CSSC[C@H](C(=O)N[C@@H](CCCNC(=N)N)C(=O)N[C@@H](CC(C)C)C(=O)N[C@@H](CC(C)C)C(=O)N[C@@H](CCC(N)=O)C(N)=O)NC(=O)[C@H](CC(C)C)NC1=O [AKG-I-61, H-Lys-cyclo(D-Cys-Ile-Leu-D-Cys)-Arg-Leu-Leu-Gln-NH2] (H-K[dC]IL[dC]RLLQ-NH2; disulfide 2-5) | 3900 nM | 928 nM | – | – | –
CC(C)C[C@H](NC(=O)[C@H](CC(C)C)NC(=O)[C@H](CCCNC(=N)N)NC(=O)[C@H]1CSSC[C@H](NC(=O)[C@@H](N)CCCCN)C(=O)N[C@@H](CC(C)C)C(=O)N1)C(=O)N[C@@H](CCC(N)=O)C(N)=O [AKG-I-63, H-Lys-cyclo(Cys-Leu-D-Cys)-Arg-Leu-Leu-Gln-NH2] (H-KCL[dC]RLLQ-NH2; disulfide 2-4) | 7900 nM | 2200 nM | – | – | –
CC(C)C[C@H](NC(=O)[C@H](CC(C)C)NC(=O)[C@H](CCCNC(=N)N)NC(=O)[C@H]1CSSC[C@@H](NC(=O)[C@@H](N)CCCCN)C(=O)N[C@@H](CC(C)C)C(=O)N1)C(=O)N[C@@H](CCC(N)=O)C(N)=O [AKG-I-64, H-Lys-cyclo(D-Cys-Leu-D-Cys)-Arg-Leu-Leu-Gln-NH2] (H-K[dC]L[dC]RLLQ-NH2; disulfide 2-4) | 5200 nM | 1800 nM | – | – | –
CC[C@H](C)[C@@H]1NC(=O)[C@H](CC(C)C)NC(=O)[C@H](NC(=O)[C@@H](N)CCCNC(=N)N)CSSC[C@@H](C(=O)N[C@@H](CCCNC(=N)N)C(=O)N[C@@H](CC(C)C)C(=O)N[C@@H](CC(C)C)C(=O)N[C@@H](CCC(N)=O)C(N)=O)NC1=O [AKG-II-1, H-Arg-cyclo (D-Cys-Leu-Ile-Cys)-Arg-Leu-Leu-Gln-NH2] (H-R[dC]LICRLLQ-NH2; disulfide 2-5) | 216 nM | 13 nM | – | – | –
CC[C@H](C)[C@@H]1NC(=O)[C@H](NC(=O)[C@@H](N)CCCNC(=N)N)CSSCC[C@@H](C(=O)N[C@@H](CCCNC(=N)N)C(=O)N[C@@H](CC(C)C)C(=O)N[C@@H](CC(C)C)C(=O)N[C@@H](CCC(N)=O)C(N)=O)NC(=O)[C@H](CC(C)C)NC1=O [AKG-II-3, H-Arg-cyclo (D-Cys-Ile-Leu-HomoCys)-Arg-Leu-Leu-Gln-NH2] (H-R[dC]IL[hCys]RLLQ-NH2; disulfide 2-5) | 214 nM | 13 nM | – | – | –
CC[C@H](C)[C@@H]1NC(=O)[C@H](NC(=O)[C@@H](N)CCCNC(=N)N)CCSSC[C@@H](C(=O)N[C@@H](CCCNC(=N)N)C(=O)N[C@@H](CC(C)C)C(=O)N[C@@H](CC(C)C)C(=O)N[C@@H](CCC(N)=O)C(N)=O)NC(=O)[C@H](CC(C)C)NC1=O [AKG-II-4, H-Arg-cyclo (DHomoCys-lIe-Leu-Cys)- Arg-Leu-Leu-Gln-NH2] (H-R[d(hCys)]ILCRLLQ-NH2; disulfide 2-5) | 591 nM | 35 nM | – | – | –
CC[C@H](C)[C@@H]1NC(=O)[C@@H](NC(=O)[C@@H](N)CCCNC(=N)N)CSSC[C@@H](C(=O)N[C@@H](CC(C)C)C(=O)N[C@@H](CC(C)C)C(=O)N[C@@H](CCC(N)=O)C(N)=O)NC(=O)[C@H](CCCNC(=N)N)NC(=O)[C@H](CC(C)C)NC1=O [AKG-II-8, H-Arg-cyclo (Cys-Ile-Leu-Arg-Cys)-Leu-Leu-Gln-NH2] (H-RCILRCLLQ-NH2; disulfide 2-6) | 1160 nM | 174 nM | – | – | –
CC[C@H](C)[C@@H]1NC(=O)[C@H](NC(=O)[C@@H](N)CCCNC(=N)N)C(C)(C)SSC[C@@H](C(=O)N[C@@H](CCCNC(=N)N)C(=O)N[C@@H](CC(C)C)C(=O)N[C@@H](CC(C)C)C(=O)N[C@@H](CCC(N)=O)C(N)=O)NC(=O)[C@H](CC(C)C)NC1=O [AKG-II-9, H-Arg-cyclo (D-Pen-Ile-Leu-Cys)-Arg-Leu-Leu-Gln-NH2] (H-R[dPen]ILCRLLQ-NH2; disulfide 2-5) | 933 nM | 168 nM | – | – | –
CC[C@H](C)[C@@H]1NC(=O)[C@H](NC(=O)[C@@H](N)CCCNC(=N)N)CSSC(C)(C)[C@@H](C(=O)N[C@@H](CCCNC(=N)N)C(=O)N[C@@H](CC(C)C)C(=O)N[C@@H](CC(C)C)C(=O)N[C@@H](CCC(N)=O)C(N)=O)NC(=O)[C@H](CC(C)C)NC1=O [AKG-II-10, H-Arg-cyclo (D-Cys-Ile-Leu-Pen)-Arg-Leu-Leu-Gln-NH2] (H-R[dC]IL[Pen]RLLQ-NH2; disulfide 2-5) | 1910 nM | 88 nM | – | – | –
CC[C@H](C)[C@@H]1NC(=O)[C@H](NC(=O)[C@@H](N)CCCNC(=N)N)C(C)(C)SSC(C)(C)[C@@H](C(=O)N[C@@H](CCCNC(=N)N)C(=O)N[C@@H](CC(C)C)C(=O)N[C@@H](CC(C)C)C(=O)N[C@@H](CCC(N)=O)C(N)=O)NC(=O)[C@H](CC(C)C)NC1=O [AKG-II-11, H-Arg-cyclo(D-Pen-Ile-Leu-Pen)-Arg-Leu-Leu-Gln-NH2] (H-R[dPen]IL[Pen]RLLQ-NH2; disulfide 2-5) | 3970 nM | 78 nM | – | – | –
CC(C)C[C@H](NC(=O)[C@H](CC(C)C)NC(=O)[C@H](CCC(N)=O)NC(=O)[C@H](CCC(=O)O)NC(=O)[C@H](CC(C)C)NC(=O)CC1O[C@H](CO)[C@@H](O)[C@H](O)[C@@H]1O)C(=O)O (stereo partly drawn) [AML-I-31, Mannosylacetvl-Leu-Glu-Gln-Leu-Leu-OH] | 339000 nM | – | – | – | –
CC[C@H](C)[C@@H]1NC(=O)[C@H](NC(=O)[C@@H](N)CCCCN)CSSC[C@@H](C(=O)N[C@@H](CCCNC(=N)N)C(=O)N[C@@H](CC(C)C)C(=O)N[C@@H](CC(C)C)C(=O)N[C@@H](CCC(N)=O)C(N)=O)NC(=O)[C@H](CC(C)C)NC1=O [AML-I-48/4, H-Lys-cyclo (D-Cys-Ile-Leu-Cys)-Arg-Leu-Leu-Gln-NH2] (H-K[dC]ILCRLLQ-NH2; disulfide 2-5) | 390 nM | – | ~390 nM | exhibits selectivity against the ER alpha receptor | 25 nM
CC[C@H](C)[C@H](NC(=O)[C@H](CCCCN)NC(=O)[C@@H](N)CCCCN)C(=O)N[C@@H](CC(C)C)C(=O)N[C@@H](Cc1c[nH]cn1)C(=O)N[C@@H](CCCNC(=N)N)C(=O)N[C@@H](CC(C)C)C(=O)N[C@@H](CC(C)C)C(=O)N[C@@H](CCC(N)=O)C(N)=O [AML-I-61/2, H-Lys-Lys-Ile-Leu-His-Arg-Leu-Leu-Gln-NH2] (H-KKILHRLLQ-NH2) | 2800 nM | 170 nM | – | – | –
